Laboratory results: ChEMBL document CHEMBL6177930, “2-(4-Bromobenzyl) tethered 4-amino aryl/alkyl-5,6,7,8-tetrahydrobenzo[4,5]thieno[2,3-d]pyrimidines: design, synthesis, anticancer assessment via dual topoisomerase-I/II inhibition, and in silico studies” (RSC Med Chem, 2025)

Key:
[1] = Antiproliferative activity against human HCC cells assessed as inhibition of cell growth at 10 uM measured after 48 to 72 hrs by MTT assay relative to control; type: functional; conditions: time 48-72 hrs
FaDu = experiment: Antiproliferative activity against human FaDu cells assessed as inhibition of cell growth at 10 uM measured after 48 to 72 hrs by MTT assay relative to control; type: functional; conditions: time 48-72 hrs
T47D = experiment: Antiproliferative activity against human T47D cells assessed as inhibition of cell growth at 10 uM measured after 48 to 72 hrs by MTT assay relative to control; type: functional; conditions: time 48-72 hrs
MDA-MB-231 = experiment: Antiproliferative activity against human MDA-MB-231 cells assessed as inhibition of cell growth at 10 uM measured after 48 to 72 hrs by MTT assay relative to control; type: functional; conditions: time 48-72 hrs
A549 = experiment: Antiproliferative activity against human A549 cells assessed as inhibition of cell growth at 10 uM measured after 48 to 72 hrs by MTT assay relative to control; type: functional; conditions: time 48-72 hrs
MCF7 = experiment: Antiproliferative activity against human MCF7 cells assessed as inhibition of cell growth at 10 uM measured after 48 to 72 hrs by MTT assay relative to control; type: functional; conditions: time 48-72 hrs
[2] = biological target: T1, Prostaglandin G/H synthase 2 (Homo sapiens) (UniProt P35354); experiment: Inhibition of human recombinant COX-2 at 10 uM relative to control
T1 sequence (whole entry): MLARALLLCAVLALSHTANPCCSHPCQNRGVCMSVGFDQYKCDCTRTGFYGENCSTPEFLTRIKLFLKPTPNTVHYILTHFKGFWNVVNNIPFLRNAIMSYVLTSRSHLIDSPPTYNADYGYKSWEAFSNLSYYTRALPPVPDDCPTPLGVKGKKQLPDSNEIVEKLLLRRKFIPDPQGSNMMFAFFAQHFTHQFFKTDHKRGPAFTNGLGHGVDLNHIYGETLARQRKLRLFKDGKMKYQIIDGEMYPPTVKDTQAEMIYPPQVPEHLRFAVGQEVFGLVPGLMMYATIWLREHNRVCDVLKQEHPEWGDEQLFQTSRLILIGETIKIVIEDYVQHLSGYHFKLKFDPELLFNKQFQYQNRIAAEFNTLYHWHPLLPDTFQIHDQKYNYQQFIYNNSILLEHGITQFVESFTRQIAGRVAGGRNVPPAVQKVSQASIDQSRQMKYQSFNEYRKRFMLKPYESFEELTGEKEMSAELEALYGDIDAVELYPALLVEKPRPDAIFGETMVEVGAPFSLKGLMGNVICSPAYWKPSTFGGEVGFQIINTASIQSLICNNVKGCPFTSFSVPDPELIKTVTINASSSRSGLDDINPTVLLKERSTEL

[3] = biological target: T2, Prostaglandin G/H synthase 1 (Ovis aries) (UniProt P05979); experiment: Inhibition of ovine COX-1 at 10 uM relative to control
T2 sequence (whole entry): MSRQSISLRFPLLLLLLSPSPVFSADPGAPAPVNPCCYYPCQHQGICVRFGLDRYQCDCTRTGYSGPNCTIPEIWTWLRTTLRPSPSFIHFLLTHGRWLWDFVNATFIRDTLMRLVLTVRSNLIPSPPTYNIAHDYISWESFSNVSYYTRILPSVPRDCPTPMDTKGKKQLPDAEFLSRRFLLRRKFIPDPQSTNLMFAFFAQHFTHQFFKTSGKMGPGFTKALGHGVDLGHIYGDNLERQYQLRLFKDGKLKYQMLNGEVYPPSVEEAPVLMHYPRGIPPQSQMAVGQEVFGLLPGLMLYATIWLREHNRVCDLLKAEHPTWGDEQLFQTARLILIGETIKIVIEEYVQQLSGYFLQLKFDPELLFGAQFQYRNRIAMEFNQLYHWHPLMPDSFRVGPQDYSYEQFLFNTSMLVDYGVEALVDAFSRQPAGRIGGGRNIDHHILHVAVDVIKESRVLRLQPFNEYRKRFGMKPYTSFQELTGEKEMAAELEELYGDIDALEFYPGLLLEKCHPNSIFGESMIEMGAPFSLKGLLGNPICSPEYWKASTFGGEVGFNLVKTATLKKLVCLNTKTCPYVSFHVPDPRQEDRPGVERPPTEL

[4] = biological target: T3, DNA topoisomerase 1 (Homo sapiens) (UniProt P11387); experiment: Inhibition of human topoisomerase-I extracted from baculovirus expression system assessed as relaxation of supercoiled DNA using SC-DNA as substrate incubated for 30 mins by EtBr staining based agarose gel electrophoresis method
T3 sequence (whole entry): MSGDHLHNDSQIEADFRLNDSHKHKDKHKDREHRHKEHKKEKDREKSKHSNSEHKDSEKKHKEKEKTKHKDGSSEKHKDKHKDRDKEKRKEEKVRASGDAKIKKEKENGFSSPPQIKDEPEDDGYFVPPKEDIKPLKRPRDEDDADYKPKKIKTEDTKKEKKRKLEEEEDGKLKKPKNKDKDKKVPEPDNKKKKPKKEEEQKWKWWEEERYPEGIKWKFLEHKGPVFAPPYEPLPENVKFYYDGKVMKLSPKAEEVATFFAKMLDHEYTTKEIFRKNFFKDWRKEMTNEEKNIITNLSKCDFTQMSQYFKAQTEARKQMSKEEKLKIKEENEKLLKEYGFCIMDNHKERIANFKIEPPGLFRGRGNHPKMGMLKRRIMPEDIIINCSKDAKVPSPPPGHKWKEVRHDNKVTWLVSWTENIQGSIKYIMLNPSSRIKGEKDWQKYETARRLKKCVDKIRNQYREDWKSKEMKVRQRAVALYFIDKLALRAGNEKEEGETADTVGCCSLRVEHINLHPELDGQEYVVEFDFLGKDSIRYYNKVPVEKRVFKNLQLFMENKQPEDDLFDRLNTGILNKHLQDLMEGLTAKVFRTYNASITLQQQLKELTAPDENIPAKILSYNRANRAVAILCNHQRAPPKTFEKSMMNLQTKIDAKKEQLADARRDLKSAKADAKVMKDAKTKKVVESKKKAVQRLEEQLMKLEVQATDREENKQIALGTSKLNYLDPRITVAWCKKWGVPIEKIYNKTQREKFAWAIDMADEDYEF

[5] = biological target: T3, DNA topoisomerase 1 (Homo sapiens); experiment: Inhibition of human topoisomerase-I extracted from baculovirus expression system using SC-DNA as substrate incubated for 30 mins by EtBr staining based agarose gel electrophoresis method
HEK293 = experiment: Antiproliferative activity against HEK293 cells assessed as inhibition of cell growth at 10 to 25 uM measured after 48 to 72 hrs by MTT assay; type: toxicity, cell-based; conditions: human, hek293, 25 µM; dose lower 10 µM, time lower 48 hrs, dose upper 25 µM, time upper 72 hrs
[6] = biological target: DNA topoisomerase 2-alpha (Homo sapiens) (UniProt P11388); experiment: Inhibition of human topoisomerase-II alpha assessed as reduction in decatenation activity using kinetoplast DNA as substrate incubated for 30 mins by EtBr staining based agarose gel electrophoresis method
Sequence of DNA topoisomerase 2-alpha (Homo sapiens) (P11388 whole entry): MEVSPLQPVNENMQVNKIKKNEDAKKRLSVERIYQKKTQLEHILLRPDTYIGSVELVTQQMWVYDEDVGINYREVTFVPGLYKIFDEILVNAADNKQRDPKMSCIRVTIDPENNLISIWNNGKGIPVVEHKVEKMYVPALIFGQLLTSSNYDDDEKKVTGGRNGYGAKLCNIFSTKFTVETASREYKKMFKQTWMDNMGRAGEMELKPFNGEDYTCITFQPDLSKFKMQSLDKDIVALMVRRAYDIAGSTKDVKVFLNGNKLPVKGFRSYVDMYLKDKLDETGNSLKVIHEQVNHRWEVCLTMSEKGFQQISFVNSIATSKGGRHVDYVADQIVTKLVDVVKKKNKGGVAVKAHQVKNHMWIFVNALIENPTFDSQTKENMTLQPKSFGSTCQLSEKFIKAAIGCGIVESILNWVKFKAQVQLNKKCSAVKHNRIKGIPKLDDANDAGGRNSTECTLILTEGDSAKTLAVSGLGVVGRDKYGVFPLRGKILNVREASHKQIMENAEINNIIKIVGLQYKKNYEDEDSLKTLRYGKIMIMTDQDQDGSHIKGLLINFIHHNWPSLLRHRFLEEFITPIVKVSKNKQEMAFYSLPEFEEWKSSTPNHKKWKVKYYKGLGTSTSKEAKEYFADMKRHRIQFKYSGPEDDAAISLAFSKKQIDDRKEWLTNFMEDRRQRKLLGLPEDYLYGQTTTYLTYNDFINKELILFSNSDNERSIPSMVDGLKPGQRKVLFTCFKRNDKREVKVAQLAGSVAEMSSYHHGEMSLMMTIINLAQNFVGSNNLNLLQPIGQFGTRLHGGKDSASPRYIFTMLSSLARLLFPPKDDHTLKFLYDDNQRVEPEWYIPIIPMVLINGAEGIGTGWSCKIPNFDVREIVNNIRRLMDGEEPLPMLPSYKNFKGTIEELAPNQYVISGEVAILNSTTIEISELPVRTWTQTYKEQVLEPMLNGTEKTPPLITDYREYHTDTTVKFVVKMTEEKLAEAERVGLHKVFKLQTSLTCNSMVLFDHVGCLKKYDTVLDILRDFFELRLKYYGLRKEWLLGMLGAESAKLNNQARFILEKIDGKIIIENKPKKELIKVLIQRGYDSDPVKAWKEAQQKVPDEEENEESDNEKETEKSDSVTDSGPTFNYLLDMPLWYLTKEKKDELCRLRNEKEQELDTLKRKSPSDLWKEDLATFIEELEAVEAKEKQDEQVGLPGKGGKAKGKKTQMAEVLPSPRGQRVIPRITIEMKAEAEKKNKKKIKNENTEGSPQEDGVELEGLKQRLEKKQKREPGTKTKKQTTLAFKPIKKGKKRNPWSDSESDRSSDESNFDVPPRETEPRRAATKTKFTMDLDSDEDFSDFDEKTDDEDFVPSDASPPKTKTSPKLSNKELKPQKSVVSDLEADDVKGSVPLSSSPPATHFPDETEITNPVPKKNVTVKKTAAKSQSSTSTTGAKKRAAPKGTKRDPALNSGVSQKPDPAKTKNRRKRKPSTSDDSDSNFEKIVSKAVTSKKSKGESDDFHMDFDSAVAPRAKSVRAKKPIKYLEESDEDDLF

Row | inhibition [2] [%] | inhibition [3] [%] | inhibition [6] | Compound | inhibition at 10 µM [1] [%] | inhibition at 10 µM (FaDu) [%] | inhibition at 10 µM (T47D) [%] | inhibition at 10 µM (MDA-MB-231) [%] | inhibition at 10 µM (A549) [%] | inhibition at 10 µM (MCF7) [%] | inhibition [4] | inhibition [5] | Activity (HEK293)
1 |  |  |  | NCCCNc1nc(Cc2ccc(Br)cc2)nc2sc3c(c12)CCCC3 | 8.12 | 54.1 | 8.24 | 1.12 | 8.86 | 8.28 |  |  | 
2 |  |  |  | CC(C)(C)OC(=O)N1CCN(c2nc(Cc3ccc(Br)cc3)nc3sc4c(c23)CCCC4)CC1 | 2.01 | 16.6 | 3.33 | 38.9 | 0.29 | 15.1 |  |  | 
3 |  |  |  | Brc1ccc(Cc2nc(NC3CCCCC3)c3c4c(sc3n2)CCCC4)cc1 | 12.8 | 27.4 | 1.35 | 1.22 | 1.56 | 19 |  |  | 
4 |  |  |  | C#Cc1cccc(Nc2ncnc3cc(OCCOC)c(OCCOC)cc23)c1 [ERLOTINIB] | 4.19 | 19.7 | 1.27 | 19.6 |  | 6.71 |  |  | 
5 |  |  |  | CNc1nc(Cc2ccc(Br)cc2)nc2sc3c(c12)CCCC3 | 1.28 | 23.4 | 1.69 | 1.09 | 2.65 | 18.7 |  |  | 
6 |  |  |  | Brc1ccc(Cc2nc(NCc3ccccc3)c3c4c(sc3n2)CCCC4)cc1 | 1.79 | 24.3 | 11.2 | 4.99 | 3.12 | 0.55 |  |  | 
7 | 57.9 | 28.5 | Active; Compound Showed Weak Effect | Brc1ccc(Cc2nc(NCCN3CCNCC3)c3c4c(sc3n2)CCCC4)cc1 | 1.24 | 74.7 | 54 | 1.23 | 34.2 | 19.4 | Active; Compound Showed Significant Inhibition Than Compound 7A | Active; Compound Showed Potent Inhibition Activity Than Camptothecin | Non-toxic
8 |  |  |  | OCCNc1nc(Cc2ccc(Br)cc2)nc2sc3c(c12)CCCC3 | 2 | 50.2 | 5.73 | 2.1 | 1.21 | 2.71 |  |  | 
9 |  |  |  | Brc1ccc(Cc2nc(-n3ccnc3)c3c4c(sc3n2)CCCC4)cc1 | 2.03 | 46.9 | 1.99 | 12.8 | 2.45 | 3.19 |  |  | 
10 |  |  |  | COc1ccc(CNc2nc(Cc3ccc(Br)cc3)nc3sc4c(c23)CCCC4)cc1 | 1.01 | 26.8 | 1.05 | 13.7 | 1.69 | 29.6 |  |  | 
11 |  |  |  | Fc1cc(CNc2nc(Cc3ccc(Br)cc3)nc3sc4c(c23)CCCC4)cc(F)c1F | 1.57 | 25.8 | 3.01 | 2.39 | 6.63 | 8.28 |  |  | 
12 |  |  |  | CCCNc1nc(Cc2ccc(Br)cc2)nc2sc3c(c12)CCCC3 | 1.37 | 56.2 | 17.3 | 3.11 | 3.63 | 3.16 |  |  | 
13 |  |  |  | Brc1ccc(Cc2nc(N3CCCC3)c3c4c(sc3n2)CCCC4)cc1 | 1.36 | 49.2 | 3.74 | 8.72 | 10.3 | 19.4 |  |  | 
14 |  |  |  | CCN(CC)c1nc(Cc2ccc(Br)cc2)nc2sc3c(c12)CCCC3 | 1.47 | 34.2 | 2.88 | 1.91 | 2.22 | 15.7 |  |  | 
15 |  |  |  | Fc1ccc(CNc2nc(Cc3ccc(Br)cc3)nc3sc4c(c23)CCCC4)cc1 | 1.36 | 21.4 | 2.58 | 10.8 | 1.55 | 0.55 |  |  | 
16 |  |  |  | Brc1ccc(Cc2nc(NC3CC3)c3c4c(sc3n2)CCCC4)cc1 | 2.11 | 28.9 | 1.31 | 2.23 | 1.11 | 38.5 |  |  | 
17 |  |  |  | Brc1ccc(Cc2nc(NCc3ccccn3)c3c4c(sc3n2)CCCC4)cc1 | 2.05 | 29.1 | 17.9 | 1.25 | 3.32 | 4.03 |  |  | 
18 |  |  |  | Fc1ccccc1CNc1nc(Cc2ccc(Br)cc2)nc2sc3c(c12)CCCC3 | 2.55 | 26.2 | 2.14 | 6.27 | 3.45 | 19.4 |  |  | 
19 |  |  |  | C=CCNc1nc(Cc2ccc(Br)cc2)nc2sc3c(c12)CCCC3 | 1.55 | 45.2 | 2.35 | 1.17 | 2.89 | 20.5 |  |  | 
20 |  |  |  | Nc1ccccc1CNc1nc(Cc2ccc(Br)cc2)nc2sc3c(c12)CCCC3 | 1.89 | 25.9 | 1.79 | 5.74 | 1.33 | 2.66 |  |  | 
21 |  |  |  | Clc1ccccc1CNc1nc(Cc2ccc(Br)cc2)nc2sc3c(c12)CCCC3 | 1.55 | 18.1 | 3.69 | 0.1 | 2.67 | 9.51 |  |  | 
